A short description of one series: in vitro. Particulars: human.
Series [1] has as its system influenza A/Puerto Rico/8/34 H1N1 (PR8) virus. In words: microbe, parasite or virus in culture. Format: cell-based. Particulars: for SI (selectivity index, ratio of the CC50 to the IC50): A549 cells, PR8; for IC50: Influenza A virus, H1N1|PR8, A549, 24 h.

In the series “in vitro”, `Cc1nc2c(=O)[nH]cnc2n1C(Cc1ccccc1)C(=O)O` (stereo not shown) [Compound 7e, 2-(8-Methyl-6-oxo-1,6-dihydro-9H-purin-9-yl)-3-phenylpropanoic acid] showed a CC50 of 6.35 µM.

What is called IC50 is the point on the concentration scale where inhibition reaches its midpoint. Higher therefore signals weaker potency in that assay. `Cc1nc(C#N)c(N)n1C(C(=O)O)C(C)C` (stereo not shown) [Compound 5c, 2-(5-Amino-4-cyano-2-methyl-1H-imidazol-1-yl)-3-methylbutanoic acid]: in series [1], the “SI (selectivity index, ratio of the CC50 to the IC50)” value came to 0.8 and the IC50 worked out at 0.83 µM. The same compound registered a CC50 in “in vitro” of 0.62 µM.

`Cc1nc2c(=O)[nH]cnc2n1C(C(=O)O)C(C)C` (stereo not shown) [Compound 7c, 3-Methyl-2-(8-methyl-6-oxo-1,6-dihydro-9H-purin-9-yl)butanoic acid]: in series [1], the “expression of HA on infected monolayers (RFU % vs untreated infected cells)” value was “decreased” and the IC50 worked out at 0.59 µM. This compound also displayed a CC50 in the series “in vitro” of 1.09 µM.

For `COC(=O)C(C(C)C)n1c(C)nc(C#N)c1N` (stereo not shown) [Compound 4c, Methyl 2-(5-amino-4-cyano-2-methyl-1H-imidazol-1-yl)-3-methylbutanoate], in series [1], the “SI (selectivity index, ratio of the CC50 to the IC50)” value was determined as 0.5 and the IC50 worked out at 2.41 µM. Moreover, the CC50 in “in vitro” stood at 1.13 µM.

In the case of `COC(=O)Cn1c(C)nc(C#N)c1N` [Compound 4a, Methyl 2-(5-amino-4-cyano-2-methyl-1H-imidazol-1-yl)acetate], in the series “in vitro”, the CC50 came to 1.02 µM.

`Cc1nc2c(=O)[nH]cnc2n1C(C)C(=O)O` (stereo not shown) [Compound 7b, 2-(8-Methyl-6-oxo-1,6-dihydro-9H-purin-9-yl)propanoic acid] gave an IC50 in series [1] of 1.85 µM. Besides, the CC50 in the series “in vitro” amounted to 2.86 µM.

As to `Cc1nc2c(=O)[nH]cnc2n1CC(=O)O` [Compound 7a, 2-(8-Methyl-6-oxo-1,6-dihydro-9H-purin-9-yl)acetic acid], in series [1], the “SI (selectivity index, ratio of the CC50 to the IC50)” value is on record as 0.84 and it took 0.89 µM to reach half-maximal inhibition (IC50). Moreover, in the series “in vitro”, the CC50 is 0.75 µM.

In series [1], `COC(=O)C(Cc1ccccc1)n1c(C)nc(C#N)c1N` (stereo not shown) [Compound 4e, Methyl 2-(5-amino-4-cyano-2-methyl-1H-imidazol-1-yl)-3-phenylpropanoate] came in with an IC50 of 0.39 µM. For the same compound, the CC50 in the series “in vitro” was found to be 0.84 µM.

`COC(=O)C(Cc1ccc(O)cc1)n1c(C)nc2c(=O)[nH]cnc21` (stereo not shown) [Compound 6f, Methyl 3-(4-hydroxyphenyl)-2-(8-methyl-6-oxo-1,6-dihydro-9H-purin-9-yl)propanoate] showed an IC50 in series [1] of 0.48 µM. This compound displayed a CC50 in the series “in vitro” of 0.8 µM.

`Cc1nc(C#N)c(N)n1C(Cc1ccccc1)C(=O)O` (stereo not shown) [Compound 5e, 2-(5-Amino-4-cyano-2-methyl-1H-imidazol-1-yl)-3-phenylpropanoic acid] came in with an IC50 in series [1] of 0.46 µM. In the series “in vitro”, this compound had a CC50 of 3.36 µM.

Regarding `COC(=O)C(Cc1ccc(O)cc1)n1c(C)nc(C#N)c1N` (stereo not shown) [Compound 4f, Methyl 2-(5-amino-4-cyano-2-methyl-1H-imidazol-1-yl)-3-(4-hydroxyphenyl)propanoate], in series [1], the “SI (selectivity index, ratio of the CC50 to the IC50)” value is 0.5 and the IC50 came out at 3.2 µM. In “in vitro”, this compound had a CC50 of 1.45 µM.

On to `COC(=O)Cn1c(C)nc2c(=O)[nH]cnc21` [Compound 6a, Methyl 2-(8-methyl-6-oxo-1,6-dihydro-9H-purin-9-yl)acetate], for which, in series [1], the “SI (selectivity index, ratio of the CC50 to the IC50)” value stood at 0.3 and the IC50 was 6.96 µM. The same compound came in with a CC50 in “in vitro” of 2.11 µM.

Regarding `Cc1nc(C#N)c(N)n1CC(=O)O` [Compound 5a, 2-(5-Amino-4-cyano-2-methyl-1H-imidazol-1-yl)acetic acid], in series [1], the “expression of HA on infected monolayers (RFU % vs untreated infected cells)” value is given as “decreased” and half-maximal inhibition (IC50) required 0.76 µM. The same compound gave a CC50 in the series “in vitro” of 2.2 µM.

Take `COC(=O)C(Cc1ccccc1)n1c(C)nc2c(=O)[nH]cnc21` (stereo not shown) [Compound 6e, Methyl 2-(8-methyl-6-oxo-1,6-dihydro-9H-purin-9-yl)-3-phenylpropanoate]: in series [1], the “SI (selectivity index, ratio of the CC50 to the IC50)” value came out at 0.3 and the IC50 was determined as 1.87 µM. In addition, the CC50 in the series “in vitro” is 0.51 µM.

In turn, `COC(=O)C(C)n1c(C)nc(C#N)c1N` (stereo not shown) [Compound 4b, Methyl 2-(5-amino-4-cyano-2-methyl-1H-imidazol-1-yl)propanoate] gave an IC50 in series [1] of 0.76 µM. In “in vitro”, this compound showed a CC50 of 2.75 µM.

Take `Cc1nc2c(=O)[nH]cnc2n1C(CO)C(=O)O` (stereo not shown) [Compound 7d, 3-Hydroxy-2-(8-methyl-6-oxo-1,6-dihydro-9H-purin-9-yl)propanoic acid]: in “in vitro”, the CC50 is 6.11 µM.

Compound `COC(=O)C(C)n1c(C)nc2c(=O)[nH]cnc21` (stereo not shown) [Compound 6b, Methyl 2-(8-methyl-6-oxo-1,6-dihydro-9H-purin-9-yl)propanoate] yielded a CC50 in the series “in vitro” of 0.47 µM.

Take `Cc1nc(C#N)c(N)n1C(Cc1ccc(O)cc1)C(=O)O` (stereo not shown) [Compound 5f, 2-(5-Amino-4-cyano-2-methyl-1H-imidazol-1-yl)-3-(4-hydroxyphenyl)propanoic acid]: in series [1], the “SI (selectivity index, ratio of the CC50 to the IC50)” value is listed as 0.45 and the IC50 turned out to be 1.99 µM. In “in vitro”, this compound came in with a CC50 of 0.9 µM.

In the series “in vitro”, `COC(=O)C(CO)n1c(C)nc2c(=O)[nH]cnc21` (stereo not shown) [Compound 6d, Methyl 3-hydroxy-2-(8-methyl-6-oxo-1,6-dihydro-9H-purin-9-yl)propanoate] returned a CC50 of 0.93 µM.

Compound `COC(=O)C(C(C)C)n1c(C)nc2c(=O)[nH]cnc21` (stereo not shown) [Compound 6c, Methyl 3-methyl-2-(8-methyl-6-oxo-1,6-dihydro-9H-purin-9-yl)butanoate] registered an IC50 in series [1] of 0.18 µM. Moreover, in the series “in vitro”, the CC50 was 0.31 µM.

`COC(=O)C(CO)n1c(C)nc(C#N)c1N` (stereo not shown) [Compound 4d, Methyl 2-(5-amino-4-cyano-2-methyl-1H-imidazol-1-yl)-3-hydroxypropanoate] registered an IC50 in series [1] of 0.68 µM. This compound returned a CC50 in the series “in vitro” of 1.99 µM.

For `Cc1nc(C#N)c(N)n1C(C)C(=O)O` (stereo not shown) [Compound 5b, 2-(5-Amino-4-cyano-2-methyl-1H-imidazol-1-yl)propanoic acid], in series [1], the “SI (selectivity index, ratio of the CC50 to the IC50)” value came out at 1 and it took 3 µM to reach half-maximal inhibition (IC50). Besides, the CC50 in the series “in vitro” was 2.91 µM.

The values above are taken from PMC9040849 (RSC Advances, 2021).
